According to patent US20250171437A1 (Agios Pharmaceuticals,Inc., priority 2022, published 2025):

Molecular target: T1, human PAH with the R408W mutation (A375 R408W cells) (Homo sapiens, UniProt P00439, R408W)
T1 construct: expressed in transfected cells
T1 sequence (P00439 1-452 R408W): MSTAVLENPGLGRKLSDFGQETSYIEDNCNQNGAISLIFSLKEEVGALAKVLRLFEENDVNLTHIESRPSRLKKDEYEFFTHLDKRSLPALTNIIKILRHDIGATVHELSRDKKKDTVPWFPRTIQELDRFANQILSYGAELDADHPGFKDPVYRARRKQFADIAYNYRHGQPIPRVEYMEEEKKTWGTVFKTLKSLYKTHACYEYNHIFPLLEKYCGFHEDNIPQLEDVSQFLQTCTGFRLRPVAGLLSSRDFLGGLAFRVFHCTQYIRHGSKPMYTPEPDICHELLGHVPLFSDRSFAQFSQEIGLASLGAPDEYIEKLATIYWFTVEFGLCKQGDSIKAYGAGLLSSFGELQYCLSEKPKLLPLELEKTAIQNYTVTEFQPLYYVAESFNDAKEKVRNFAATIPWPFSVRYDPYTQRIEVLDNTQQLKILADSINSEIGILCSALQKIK
Assay: Cell Based Phenylalanine Flux Assay
Conditions: 24 hrs with compound, then 20 μM sepiapterin and 800 μM 13C9,15N-Phenylalanine for 4 hours, 13C-Tyrosine by LC-MS, average where tested multiple times
How it was run: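 Stable R408W PAH A375 cells: 24 h compound pretreatment in duplicate, then 4 h with 800 μM isotope-labelled Phe and 20 μM sepiapterin. Labelled Tyr output by LC-MS; AC50 averaged where repeated.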

[1] = A375 cells expressing R408W PAH

Compound	AC50 (A375 R408W cells) [nM]	AC50 [1] [nM]
Cn1cnc(-c2nc(C(F)(F)F)c(C(=O)N3CCc4[nH]cnc4[C@H]3c3nc4cc(F)ccc4o3)o2)c1 [Example 790, (S)-(4-(5-fluorobenzo[d]oxazol-2-yl)-6,7-dihydro-1H-imidazo[4,5-c]pyridin-5(4H)-yl)(2-(1-methyl-1H-imidazol-4-yl)-4-(trifluoromethyl)oxazol-5-yl)methanone]	500 to 1000	–
Cc1cccc2nc(C3c4nc[nH]c4CCN3C(=O)c3nc(C(C)(C)C)nn3C)oc12 (stereo not drawn)	–	1000 to 5000
Cn1cnc(-c2nnc(C(=O)N3CCc4[nH]cnc4C3c3nc4cccc(C(F)(F)F)c4o3)o2)c1 (stereo not drawn)	–	1000 to 5000
CC(F)(F)c1ncoc1C(=O)N1CCc2[nH]cnc2[C@H]1c1nc2ccc(F)cc2o1 [Example 649, (S)-(4-(1,1-difluoroethyl)oxazol-5-yl)(4-(6-fluorobenzo[d]oxazol-2-yl)-6,7-dihydro-1H-imidazo[4,5-c]pyridin-5(4H)-yl)methanone]	≤ 500	–
Cc1ccc2nc([C@@H]3c4nc[nH]c4CCN3C(=O)c3nnc(-c4cc[nH]n4)o3)oc2c1 [Example 359, (S)-(5-(1H-pyrazol-3-yl)-1,3,4-oxadiazol-2-yl)(4-(6-methylbenzo[d]oxazol-2-yl)-6,7-dihydro-1H-imidazo[4,5-c]pyridin-5(4H)-yl)methanone]	500 to 1000	–
O=C(c1nc(C(F)(F)F)co1)N1CCc2nc[nH]c2C1c1nc2cc(F)ccc2o1 (stereo not drawn)	–	1000 to 5000
Cc1nc([C@@H](C)O)oc1C(=O)N1CCc2[nH]cnc2[C@H]1c1nc2cccc(F)c2o1 [Example 217, ((S)-4-(7-fluorobenzo[d]oxazol-2-yl)-6,7-dihydro-1H-imidazo[4,5-c]pyridin-5(4H)-yl)(2-((R)-1-hydroxyethyl)-4-methyloxazol-5-yl)methanone]	≤ 500	–
C[C@@H](O)c1nc(C(F)F)c(C(=O)N2CCc3[nH]cnc3[C@@H]2c2nc3c(F)cccc3o2)o1 [Example 230, (4-(difluoromethyl)-2-((R)-1-hydroxyethyl)oxazol-5-yl)((R)-4-(4-fluorobenzo[d]oxazol-2-yl)-6,7-dihydro-1H-imidazo[4,5-c]pyridin-5(4H)-yl)methanone]	1000 to 5000	–
CC(C)(F)c1ncc(C(=O)N2CCc3[nH]cnc3[C@H]2c2nc3cc(F)ccc3o2)o1 [Example 13, (S)-(4-(5-fluorobenzo[d]oxazol-2-yl)-6,7-dihydro-1H-imidazo[4,5-c]pyridin-5(4H)-yl)(2-(2-fluoropropan-2-yl)oxazol-5-yl)methanone]	≤ 500	–
O=C(c1oc(-c2ccccn2)nc1C(F)F)N1CCc2[nH]cnc2[C@@H]1c1nc2ccccc2o1 [Example 739, (R)-(4-(benzo[d]oxazol-2-yl)-6,7-dihydro-1H-imidazo[4,5-c]pyridin-5(4H)-yl)(4-(difluoromethyl)-2-(pyridin-2-yl)oxazol-5-yl)methanone]	500 to 1000	–
O=C(c1ocnc1C(F)F)N1CCc2[nH]cnc2[C@@H]1c1nc2cc(F)ccc2o1 [Example 52, (R)-(4-(difluoromethyl)oxazol-5-yl)(4-(5-fluorobenzo[d]oxazol-2-yl)-6,7-dihydro-1H-imidazo[4,5-c]pyridin-5(4H)-yl)methanone]	500 to 1000	–
Cc1cc(F)ccc1-c1nnc(C(=O)N2CCc3[nH]cnc3[C@H]2c2nc3cc(F)ccc3o2)o1 [Example 77, (S)-(5-(4-fluoro-2-methylphenyl)-1,3,4-oxadiazol-2-yl)(4-(5-fluorobenzo[d]oxazol-2-yl)-6,7-dihydro-1H-imidazo[4,5-c]pyridin-5(4H)-yl)methanone]	500 to 1000	–
Cn1nc(-c2ccccn2)nc1C(=O)N1CCc2[nH]cnc2C1c1nc2cccc(F)c2o1 (stereo not drawn)	–	1000 to 5000
Cc1ccc(F)c2nc([C@@H]3c4nc[nH]c4CCN3C(=O)c3ocnc3C(F)F)oc12 [Example 743, (S)-(4-(difluoromethyl)oxazol-5-yl)(4-(4-fluoro-7-methylbenzo[d]oxazol-2-yl)-6,7-dihydro-1H-imidazo[4,5-c]pyridin-5(4H)-yl)methanone]	≤ 500	–
O=C(c1oc(N2CCOCC2)nc1C(F)F)N1CCc2[nH]cnc2[C@H]1c1nc2cccc(F)c2o1 [Example 648, (S)-(4-(difluoromethyl)-2-morpholinooxazol-5-yl)(4-(7-fluorobenzo[d]oxazol-2-yl)-6,7-dihydro-1H-imidazo[4,5-c]pyridin-5(4H)-yl)methanone]	≤ 500	–
COCc1ccc2c(C(=O)N3CCc4[nH]cnc4[C@H]3c3nc4cccc(F)c4o3)cnn2c1 [Example 265, (S)-(4-(7-fluorobenzo[d]oxazol-2-yl)-6,7-dihydro-1H-imidazo[4,5-c]pyridin-5(4H)-yl)(6-(methoxymethyl)pyrazolo[1,5-a]pyridin-3-yl)methanone]	500 to 1000	–
O=C(c1cnn2cc(N3CCS(=O)(=O)CC3)ccc12)N1CCc2[nH]cnc2C1c1nc2cc(F)ccc2o1 (stereo not drawn)	–	≥ 5000

Compound	AC50 (A375 R408W cells) [nM]	AC50 [1] [nM]
O=C(c1cnc(-c2ccccn2)o1)N1CCc2[nH]cnc2[C@@H]1c1nc2ccc(Br)cc2o1 [Example 8, (R)-(4-(6-bromobenzo[d]oxazol-2-yl)-6,7-dihydro-1H-imidazo[4,5-c]pyridin-5(4H)-yl)(2-(pyridin-2-yl)oxazol-5-yl)methanone]	1000 to 5000	–
O=C([C@@H]1CC1(F)F)N1CCc2[nH]cnc2[C@H]1c1nc2cc(F)ccc2o1 [Example 61, ((S)-2,2-difluorocyclopropyl)((S)-4-(5-fluorobenzo[d]oxazol-2-yl)-6,7-dihydro-1H-imidazo[4,5-c]pyridin-5(4H)-yl)methanone]	500 to 1000	–
O=C(c1cnn2cc(Br)ccc12)N1CCc2[nH]cnc2[C@@H]1c1nc2cc(F)ccc2o1 [Example 70, (R)-(6-bromopyrazolo[1,5-a]pyridin-3-yl)(4-(5-fluorobenzo[d]oxazol-2-yl)-6,7-dihydro-1H-imidazo[4,5-c]pyridin-5(4H)-yl)methanone]	1000 to 5000	–
COc1cccc2oc([C@H]3c4nc[nH]c4CCN3C(=O)c3nc(C)nn3C)nc12 [Example 828, (R)-(1,3-dimethyl-1H-1,2,4-triazol-5-yl)(4-(4-methoxybenzo[d]oxazol-2-yl)-6,7-dihydro-1H-imidazo[4,5-c]pyridin-5(4H)-yl)methanone]	≥ 5000	–
Cc1ccc2nc(C3c4nc[nH]c4CCN3C(=O)c3nnc(C(C)(C)O)o3)oc2c1 (stereo not drawn)	–	1000 to 5000
Cn1cc(C(=O)N2CCc3[nH]cnc3[C@@H]2c2nc3cc(F)ccc3o2)c(C(F)F)n1 [Example 96, (R)-(3-(difluoromethyl)-1-methyl-1H-pyrazol-4-yl)(4-(5-fluorobenzo[d]oxazol-2-yl)-6,7-dihydro-1H-imidazo[4,5-c]pyridin-5(4H)-yl)methanone]	1000 to 5000	–
O=C(c1nnc(-c2ccn(C(F)F)n2)o1)N1CCc2[nH]cnc2[C@H]1c1nc2cc(F)ccc2o1 [Example 113, (S)-(5-(1-(difluoromethyl)-1H-pyrazol-3-yl)-1,3,4-oxadiazol-2-yl)(4-(5-fluorobenzo[d]oxazol-2-yl)-6,7-dihydro-1H-imidazo[4,5-c]pyridin-5(4H)-yl)methanone]	1000 to 5000	–
O=C(c1cnn2cc(N3CCC(O)CC3)ccc12)N1CCc2[nH]cnc2C1c1nc2c(F)cc(F)cc2o1 (stereo not drawn)	–	≥ 5000
O=C(c1nnc(-c2ccncc2)o1)N1CCc2[nH]cnc2C1c1nc2cc(F)ccc2o1 (stereo not drawn)	–	1000 to 5000
CC(C)(O)c1nc(Cl)c(C(=O)N2CCc3[nH]cnc3[C@@H]2c2nc3c(F)cccc3o2)o1 [Example 273, (R)-(4-chloro-2-(2-hydroxypropan-2-yl)oxazol-5-yl)(4-(4-fluorobenzo[d]oxazol-2-yl)-6,7-dihydro-1H-imidazo[4,5-c]pyridin-5(4H)-yl)methanone]	1000 to 5000	–
CC(=O)Cn1cc(C(=O)N2CCc3[nH]cnc3[C@H]2c2nc3cc(F)ccc3o2)cn1 (single isomer, unassigned)	–	≥ 5000
O=C(c1cnc(-c2ccccn2)s1)N1CCc2[nH]cnc2[C@H]1c1nc2cc(F)ccc2o1 [Example 5, (S)-(4-(5-fluorobenzo[d]oxazol-2-yl)-6,7-dihydro-1H-imidazo[4,5-c]pyridin-5(4H)-yl)(2-(pyridin-2-yl)thiazol-5-yl)methanone]	≤ 500	–
CN1CCN(c2cn3ncc(C(=O)N4CCc5[nH]cnc5[C@H]4c4nc5cc(F)ccc5o4)c3cc2Cl)CC1 [Example 181, (S)-(5-chloro-6-(4-methylpiperazin-1-yl)pyrazolo[1,5-a]pyridin-3-yl)(4-(5-fluorobenzo[d]oxazol-2-yl)-6,7-dihydro-1H-imidazo[4,5-c]pyridin-5(4H)-yl)methanone]	≤ 500	–
Cc1nc(C(C)O)oc1C(=O)N1CCc2[nH]cnc2C1c1nc2c(F)cccc2o1 (stereo not drawn)	–	≥ 5000
Cc1cccc2oc([C@@H]3c4nc[nH]c4CCN3C(=O)c3cnc(C(C)(C)O)o3)nc12 [Example 511, (S)-(2-(2-hydroxypropan-2-yl)oxazol-5-yl)(4-(4-methylbenzo[d]oxazol-2-yl)-6,7-dihydro-1H-imidazo[4,5-c]pyridin-5(4H)-yl)methanone]	500 to 1000	–
Cn1cc(-c2nnc(C(=O)N3CCc4[nH]cnc4[C@@H]3c3nc4cc(F)cc(F)c4o3)o2)cn1 [Example 666, (R)-(4-(5,7-difluorobenzo[d]oxazol-2-yl)-6,7-dihydro-1H-imidazo[4,5-c]pyridin-5(4H)-yl)(5-(1-methyl-1H-pyrazol-4-yl)-1,3,4-oxadiazol-2-yl)methanone]	≤ 500	–
